The values that follow come from US6951882B2, “Substituted 4-phenyl-[1,3]-dioxanes” (Janssen Pharmaceutica N.V., priority 2002, dated 2005).

In assay [1] the target is T1, orexin-2 receptor (Homo sapiens, UniProt O43614).
T1 construct: expressed in transfected cells; host or cells: CHO-K1 (preferred) or HEK-293 recombinant clones
T1 sequence (O43614 1-444): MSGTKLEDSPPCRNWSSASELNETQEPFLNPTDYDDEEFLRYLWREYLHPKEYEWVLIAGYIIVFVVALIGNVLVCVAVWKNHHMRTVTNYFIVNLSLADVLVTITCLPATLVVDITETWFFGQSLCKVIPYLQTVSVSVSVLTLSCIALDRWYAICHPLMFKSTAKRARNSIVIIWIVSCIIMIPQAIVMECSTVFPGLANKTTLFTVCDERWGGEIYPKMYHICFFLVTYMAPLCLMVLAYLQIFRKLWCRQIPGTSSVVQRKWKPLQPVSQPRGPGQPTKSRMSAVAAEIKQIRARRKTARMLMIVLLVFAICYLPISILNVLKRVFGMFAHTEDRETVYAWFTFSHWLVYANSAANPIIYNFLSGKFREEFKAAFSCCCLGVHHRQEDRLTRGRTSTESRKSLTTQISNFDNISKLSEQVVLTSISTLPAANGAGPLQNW
Briefly: Orexin radioligand binding assay (125I-orexin A, adherent recombinant cells). As to conditions: 125I-orexin A displacement, recombinant CHO-K1 or HEK-293 cells expressing the orexin receptor. Here is the method: The reaction was quenched with 100 μL of 10% w/v bovine serum albumin, then the products were pre-purified using Waters Maxi-Clean C18 cartridges (Alltech, San Jose, Calif.). The mobile phase for the reverse phase separations (pre-purification and gradient HPLC) was 0.1% TFA, and the eluent was 0.1% TFA in acetonitrile. After removing the acetonitrile from the Maxi-Clean cartridge eluent by lyophilization, the labeled compound was further purified by gradient HPLC using a Vydac (Hesperia, Calif.) analytical C18 HPLC column. A gradient of 2% acetonitrile/min was used and fractions were collected every 0.75 min at a flow rate of 1.5 mL/min.
Radioligand binding assays were performed in opaque, white 96-well tissue culture plates pretreated with poly-D-lysine (Bio-Coat plates, Becton Dickinson, Franklin Lakes, N.J.). Cells expressing the orexin receptor were seeded at 30,000 cells/well in 100 μL/well Ham's F12 with 10% heat inactivated fetal bovine serum, penicillin/streptomycin and 800 mg/L G418. […] In preparation for the binding assay, the cell culture medium was aspirated away, and the cells were gently washed with 100 μL-well binding buffer (Dulbecco's phosphate buffered saline containing 0.1% w/v bovine serum albumin). […] The assay was terminated by aspirating the liquid from the wells, washing the wells with iced binding buffer, aspirating the wells dry, adding 50 μL/well scintillation cocktail (MicroScint 40, Packard Biosciences, Meriden Conn.), and counting the plate(s) in a Packard TopCount scintillation counter. […] Data were analyzed using GraphPad Prizm software to calculate Ki values.

Assay [2] deals with T2, orexin receptors in PFSK-1 cells (Homo sapiens, UniProt O43614).
T2 construct: host or cells: PFSK-1
T2 sequence (O43614 1-444): T1 sequence (O43614 1-444)
Briefly: Intracellular calcium ion measurement (FLIPR, Fluo-3 AM) in PFSK-1 cells, antagonism of orexin agonist. In kind it is cell-based. Here is the method:
PFSK-1 cells were obtained from the American Type Culture Collection (CRL-2060; Manassas, Va.) and cultured as described by Fults et al. (J. Neuropathology Exp. Neurology, 1992, 51 (3):272-280). Cells were grown on 10 or 15 cm tissue culture dishes (Corning Inc., Corning, N.Y.) in RPMI medium 1640 containing 25 mM Hepes and L-glutamine (Gibco/InVitrogen, Carlsbad, Calif.) supplemented with 10% fetal bovine serum (HyClone, Logan, Utah), 50 u/mL penicillin G, and 50 u/mL streptomycin sulphate. Cells grown on 10 dishes were grown in 10 mL complete medium, and cells grown on 15 cm dishes were grown in 30 mL complete medium. Cells were passed every 3 to 5 days at a 1:5 dilution by aspirating away the medium, adding 2 mL/dish Gibco/Invitrogen Trypsin-EDTA solution, aspirating away the solution, incubating at room temperature 5 min, and dispersing the cells into fresh plates using fresh complete medium. Cells were then maintained in incubators set to maintain 37° C. and 5% CO2.
Agonist binding of orexin receptors elevates the intracellular free calcium ion concentration through the activation of a Gq protein and the opening of voltage-activated plasmalemmal calcium channels (see: A. N. Van Den Pol et al. J. Neurosci., 1998, 18(19):7962-7971). This effect was monitored using the fluorescent Ca^++ indicator Fluo-3 AM (TefLabs, Austin, Tex.) and the Molecular Devices (Sunnyvale, Calif.) FLIPR instrument.
PFSK-1 cells were removed from confluent tissue culture dishes with trypsin-EDTA as described above and plated in 96-well Packard Viewplates (Meriden, Conn.) at 50,000 cells/well in 100 μL/well complete medium. The next day the cells, which adhered to the Viewplates and grew to confluency, were loaded with the fluorescent dye. […] Test compounds were added to the wells in an isotonic, pH-neutral vehicle, such as Dulbecco's phosphate-buffered saline, and changes in intracellular calcium concentrations were measured using the FLIPR instrument.
The compounds were delivered to the test wells, and the compounds and the cells were incubated to allow binding. […] The control column for the antagonist screen included positive and negative controls to indicate the fluorescence of a full agonist response and the baseline.
Antagonism was analyzed by calculating KB and pKB values for compounds found to inhibit increases in intracellular Ca^++ concentrations of PFSK-1 cells. This was accomplished by determining the EC50 of orexin B and comparing the IC50 values determined from dilutions of antagonist compound(s), all on a single 96-well Viewplate of PFSK-1 cells loaded with Fluo-3 AM. […] The KB is then determined after Y.-C. […]
For orientation: A change in cytosolic calcium serves as a functional read-out for many receptors and channels.

A word on the Ki: it is the equilibrium dissociation constant of an inhibitor or competing ligand from its target. The term Kb denotes the affinity of an antagonist, worked out from how it opposes an agonist. `Cc1ccc(NC(=O)N[C@H]2COC(C)(C)O[C@H]2c2ccccc2)c(Br)c1` [Example 12, 1-(2-Bromo-4-methyl-phenyl)-3-((4S,5S)-2,2-dimethyl-4-phenyl-[1,3]dioxan-5-yl)-urea]: the Ki in assay [1] worked out at 5 nM. The Kb in assay [2] was 6.31 nM.
The matching figures for `CC1(C)OC[C@H](NC(=O)Nc2ccc(Cl)cc2Cl)[C@H](c2ccccc2)O1` [Example 5, 1-(2,4-Dichloro-phenyl)-3-((4S,5S)-2,2-dimethyl-4-phenyl-[1,3]dioxan-5-yl)-urea]: 15 nM and 25.1 nM.
The matching figures for `CC1(C)OC[C@H](NC(=O)Nc2ccc(Br)cc2Br)[C@H](c2ccccc2)O1` [Example 4, 1-(2,4-Dibromo-phenyl)-3-((4S,5S)-2,2-dimethyl-4-phenyl-[1,3]dioxan-5-yl)-urea]: 10 nM and 5.01 nM.
Turning to `CC1(C)OC[C@H](NC(=O)Nc2ccc(Br)cc2Cl)[C@H](c2ccccc2)O1` [Example 1, 1-(4-Bromo-2-chloro-phenyl)-3-((4S,5S)-2,2-dimethyl-4-phenyl-[1,3]dioxan-5-yl)-urea], the Ki in assay [1] turned out to be 9 nM. Moreover, the Kb in assay [2] is 25.1 nM.
